Experimental data: patent publication US20150152101A1, “ACTIVE COMPOUNDS FOR COMBATING GREASY SKIN” (L'OREAL, priority 2012, published 2015)

Experiments:
Assay type in all cases: cell-based
corneodesmosin = assay: Western blot of corneodesmosin in extracts of treated Episkin reconstructed epidermis; details: systemic treatment over 5 days, grade relative to reference, generally for the highest concentration used (tested 1 and 10 μM), (*) = most active
Procedure: (§1) The samples of reconstructed epidermis, received from the company Episkin at six days of reconstruction, were recultured as soon as received in 3.5 ml of differentiation medium (Episkin™ medium) under insert (in immersion) for 48 hours in an incubator (37° C., 5% CO2).
(§2) The epidermis samples were then placed in contact with the test compounds systemically. The Episkin™ differentiation culture medium is changed for a differentiation medium containing the test compounds with 0.1% of final DMSO vehicle. The epidermis samples were recultured in an incubator for 48 hours. A new systemic treatment is performed for a further 72 hours of culture in the incubator.
For the treatment on Episkin™, each test compound was prepared extemporaneously by weighing out and dissolving at 10 mM in DMSO, and was then used to treat 3 samples of reconstructed epidermis. Furthermore, each test compound was used in a proportion of 1 and 10 μM final in the culture medium (0.1% DMSO final). The positive controls used were vitamin D3, retinol and calcipotriol (a vitamin D3 analogue).
The epidermis samples were collected (3 epidermis samples per treatment) for histological analysis and protein extracts (the same reconstructed epidermis is used for the histological study and the protein extract). […]

Ki67 = Ki67 immunolabelling of treated Episkin reconstructed epidermis; details: for Ki67: Episkin, systemic treatment over 5 days
Procedure: as §1, §2
(§3) For the treatment on Episkin™, each test compound was prepared extemporaneously by weighing out and dissolving at 10 mM in DMSO, and was then used to treat 3 samples of reconstructed epidermis. […] The positive controls used were vitamin D3, retinol and calcipotriol (a vitamin D3 analogue).
(§4) The epidermis samples were collected (3 epidermis samples per treatment) for histological analysis and protein extracts (the same reconstructed epidermis is used for the histological study and the protein extract).
The epidermis samples were included in OCT for freezing in liquid nitrogen and then stored at −80° C. The blocks obtained were sliced using a cryostat to a thickness of 7 μm, and the slices were dried and stored at −20° C. while awaiting immunolabelling.
The marker chosen for the immunolabellings is Ki67, which affords information regarding a possible modification of the cell proliferation in the basal layer.

[1] = test system: Episkin™ reconstructed epidermis; assay: HES morphological observation of treated Episkin reconstructed epidermis; details: systemic treatment over 5 days
Procedure: as §1, §2, §3, §4
The morphological control of the treated reconstructed epidermis samples was performed by staining with HES (haematoxylin-eosin-saffron) according to a standard protocol on histological slices of the samples included in paraffin (toluene bath: three times 15 minutes; 100° alcohol baths: twice for 1 minute; 95° alcohol baths: 1 minute; rinsing in water baths; haematoxylin bath: once for 2 minutes; rinsing in water baths; short dipping in a hydrochloric acid bath; rinsing in water; eosin bath: once for 1 minute; rinsing in water; short dipping in a 100° alcohol bath; saffron bath (5 minutes); short dipping in a 100° alcohol bath; toluene bath: three times for 2 minutes).

[2] = grade relative to reference, generally for the highest concentration used (tested 1 and 10 μM), (*) = most active

Compound | CDSN (corneodesmosin) | HES [1, 2] | further results
COc1cccc(C2C3=C(Nc4c2c(=O)n(C)c(=O)n4C)c2ccccc2C3=O)c1 (centres unmarked) [Compound (1)] | ++ (*) | – | –
Cn1c2c(c(=O)n(C)c1=O)C(c1cccc(O)c1)C1=C(N2)c2ccccc2C1=O (centres unmarked) [Compound (2)] | – | – | Ki67 (Ki67; grade relative to reference, generally for the highest concentration used (tested 1 and 10 μM)): 0
Cn1c2c(c(=O)n(C)c1=O)C(c1ccc(O)cc1)C1=C(N2)c2ccccc2C1=O (centres unmarked) [Compound (5)] | – | – | Ki67 labelling (FIG. 2) (Ki67; Episkin treated in the absence and presence of compound, result in words): marked, or even occasionally total, decrease of the Ki67 labelling
COc1cc(C2C3=C(Nc4c2c(=O)n(C)c(=O)n4C)c2ccccc2C3=O)cc(OC)c1O (centres unmarked) [Compound (6)] | – | ++ (*) | –
CC1=C(/C=C/C(C)=C/C=C/C(C)=C/CO)C(C)(C)CCC1 [Retinol] | – | – | HES ([1]; 100 μM): 0; Ki67 (Ki67; 100 μM): 0
C=C1CC[C@H](O)C/C1=C/C=C1\CCC[C@]2(C)[C@@H]([C@H](C)CCCC(C)C)CC[C@@H]12 [Vitamin D3] | 0 | 0 | –
